Assay results taken from patent US6653316B1, “Substituted polycyclic aryl and heteroaryl pyrimidinones useful for selective inhibition of the coagulation cascade” (Pharmacia Corporation, priority 1999, dated 2003).
pIC50: −log10 of the molar value.

How the values were obtained:
Type in all cases: biochemical
human thrombin = human thrombin (Homo sapiens, UniProt P00734); experiment: Thrombin Assay (chromogenic substrate hydrolysis, OD 405 nm); settings: for pIC50: cells without % sign, 60 min at room temperature, read-out: IC50 or % Inhibition Thrombin II (30 μM): IC50; for inhibition at 30 µM / inhibition at 100 µM: read-out: IC50 or % Inhibition Thrombin II (30 μM): % inhibition
Method: 0.28 nM human thrombin and 0.06 mM H-D-Phenylalanyl-L-pipecolyl-L-arginine-p-nitroaniline dihydrochloride are added to a 96-well assay plate containing either inhibitor or buffer (50 mM Tris-HCl, pH 8.0. 100 mM NaCl, 0.1% BSA). The reaction, in a final volume of 100 ul is measured immediately at 405 nm to determine background absorbance. The plate is incubated at room temperature for 60 min, at which time the rate of hydrolysis of the substrate is measured by monitoring the reaction at 405 nm for the release of p-nitroaniline. Percent inhibition of thrombin activity is calculated from OD405 nm value from the experimental and control sample.
(§1) Recombinant soluble TF, consisting of amino acids 1-219 of the mature protein sequence was expressed in E. coli and purified using a Mono Q Sepharose FPLC. Recombinant human VIIa was purchased from American Diagnostica, Greenwich Conn. and chromogenic substrate N-Methylsulfonyl-D-phe-gly-arg-p-nitroaniline was prepared by American Peptide Company, Inc., Sunnyvale, Calif. Factor Xa was obtained from Enzyme Research Laboratories, South Bend Ind., thrombin from Calbiochem, La Jolla, Calif., and trypsin and L-BAPNA from Sigma, St. Louis Mo. The chromogenic substrates S-2765 and S-2238 were purchased from Chromogenix, Sweden.

[1] = molecular target: T1, recombinant soluble tissue factor and recombinant human factor VIIa (TF-VIIa) (Homo sapiens, UniProt P08709); experiment: TF-VIIa Assay (chromogenic substrate hydrolysis, OD 405 nm); settings: cells without % sign; 60 min at room temperature; read-out: IC50 or % Inhibition TF-VIIa (30 μM): IC50
T1 construct: conversion of coagulation factor VII to VIIa by Xa; host or cells: E. coli (soluble TF)
Method: In this assay 100 nM recombinant soluble tissue factor and 2 nM recombinant human factor VIIa are added to a 96-well assay plate containing 0.4 mM of the substrate, N-Methylsulfonyl-D-phe-gly-arg-p-nitroaniline and either inhibitor or buffer (5 mM CaCl2,50 mM Tris-HCl, pH 8.0, 100 mM NaCl, 0.1% BSA). The reaction, in a final volume of 100 ul is measured immediately at 405 nm to determine background absorbance. The plate is incubated at room temperature for 60 min, at which time the rate of hydrolysis of the substrate is measured by monitoring the reaction at 405 nm for the release of p-nitroaniline. Percent inhibition of TF-VIIa activity is calculated from OD405 nm value from the experimental and control sample.
as §1

human factor Xa = molecular target: T2, human factor Xa (Homo sapiens, UniProt P00742); experiment: Xa Assay (chromogenic substrate S-2765 hydrolysis, OD 405 nm)
T2 construct: purchased Enzyme Research Laboratories, South Bend Ind
Method: 0.3 nM human factor Xa and 0.15 mM N-α-Benzyloxycarbonyl-D-arginyl-L-glycyl-L-arginine-p-nitroaniline-dihydrochloride (S-2765) are added to a 96-well assay plate containing either inhibitor or buffer (50 mM Tris-HCl, pH 8.0, 100 mM NaCl, 0.1% BSA). The reaction. in a final volume of 100 ul is measured immediately at 405 nm to determine background absorbance. The plate is incubated at room temperature for 60 min, at which time the rate of hydrolysis of the substrate is measured by monitoring the reaction at 405 nm for the release of p-nitroaniline. Percent inhibition of Xa activity is calculated from OD405 nm value from the experimental and control sample.
as §1

[2] = molecular target: T3, trypsin, type IX from porcine pancreas (Sus scrofa, UniProt P00761); experiment: Trypsin Assay (L-BAPNA hydrolysis, OD 405 nm); settings: cells without % sign; 60 min at room temperature; read-out: IC50 or % Inhibition Trpysin II (30 μM): IC50
T3 construct: purchased Sigma, St. Louis Mo. type IX; host or cells: porcine pancreas
Method: 5 ug/ml trypsin, type IX from porcine pancreas and 0.375 mM N-α-Benzoyl-L-arginine-p-nitroanilide (L-BAPNA) are added to a 96-well assay plate containing either inhibitor or buffer (50 mM Tris-HCl, pH 8.0, 100 mM NaCl, 0.1% BSA). The reactions, in a final volume of 100 ul are measured immediately at 405 nm to determine background absorbance. The plate is incubated at room temperature for 60 min, at which time the rate of hydrolysis of the substrate is measured by monitoring the reaction at 405 nm for the release of p-nitroaniline. Percent inhibition of trypsin activity is calculated from OD405 nm value from the experimental and control sample.
as §1

[3] = read-out: IC50 or % Inhibition Factor Xa (30 μM): % inhibition

T2 sequence (P00742 235-488 limits assumed): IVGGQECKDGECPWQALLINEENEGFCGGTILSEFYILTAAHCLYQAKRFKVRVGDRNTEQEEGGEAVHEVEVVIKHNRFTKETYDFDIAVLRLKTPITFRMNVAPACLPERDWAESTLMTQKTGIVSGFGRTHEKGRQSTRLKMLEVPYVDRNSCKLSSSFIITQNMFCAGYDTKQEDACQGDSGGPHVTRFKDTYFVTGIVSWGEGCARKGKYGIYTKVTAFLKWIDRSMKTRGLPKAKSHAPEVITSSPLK
T2 sequence (P00742 41-179 limits assumed): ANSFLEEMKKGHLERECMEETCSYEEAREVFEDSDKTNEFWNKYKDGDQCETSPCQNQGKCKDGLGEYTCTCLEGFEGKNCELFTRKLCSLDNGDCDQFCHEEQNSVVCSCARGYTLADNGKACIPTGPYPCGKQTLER
T1 sequence (P08709 213-466 limits assumed): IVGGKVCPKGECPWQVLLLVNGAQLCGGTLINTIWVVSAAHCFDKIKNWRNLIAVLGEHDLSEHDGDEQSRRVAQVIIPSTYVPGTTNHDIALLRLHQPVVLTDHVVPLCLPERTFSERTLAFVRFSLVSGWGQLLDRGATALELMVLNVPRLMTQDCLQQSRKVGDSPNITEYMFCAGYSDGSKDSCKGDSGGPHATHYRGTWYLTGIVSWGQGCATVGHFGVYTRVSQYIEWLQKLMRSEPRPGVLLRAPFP
T1 sequence (P08709 61-212 limits assumed): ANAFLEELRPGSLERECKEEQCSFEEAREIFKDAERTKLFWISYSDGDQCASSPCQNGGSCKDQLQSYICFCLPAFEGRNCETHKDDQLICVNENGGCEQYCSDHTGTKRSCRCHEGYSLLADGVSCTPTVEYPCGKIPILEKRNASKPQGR
T1 sequence (P13726 33-251 partner limits assumed): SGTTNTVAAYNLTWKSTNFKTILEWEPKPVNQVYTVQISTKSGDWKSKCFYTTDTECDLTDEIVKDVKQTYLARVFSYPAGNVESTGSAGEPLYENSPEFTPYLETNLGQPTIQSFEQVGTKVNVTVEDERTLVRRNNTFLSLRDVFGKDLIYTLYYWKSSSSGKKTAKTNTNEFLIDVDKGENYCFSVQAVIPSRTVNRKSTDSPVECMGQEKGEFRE
T3 sequence (P00761 9-231): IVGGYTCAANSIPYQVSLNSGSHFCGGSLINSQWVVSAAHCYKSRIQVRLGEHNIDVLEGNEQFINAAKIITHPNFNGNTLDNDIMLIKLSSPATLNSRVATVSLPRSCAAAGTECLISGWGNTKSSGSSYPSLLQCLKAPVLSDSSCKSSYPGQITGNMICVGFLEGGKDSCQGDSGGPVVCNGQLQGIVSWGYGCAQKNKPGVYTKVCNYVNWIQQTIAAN

Structure (SMILES) | pIC50 (human thrombin) | pIC50 [1] | inhibition at 30 µM (human factor Xa; [3]) [%] | pIC50 [2] | inhibition at 100 µM (human thrombin) [%] | pIC50 (human factor Xa; cells without % sign, 60 min at room temperature, read-out: IC50 or % Inhibition Factor Xa (30 μM): IC50) | inhibition at 100 µM (human factor Xa; @100 μM, read-out: IC50 or % Inhibition Factor Xa (30 μM): % inhibition) [%] | inhibition at 30 µM (human thrombin) [%]
N=C(N)c1cccc(CNC(=O)Cn2c(-c3ccccc3)ncc(NS(=O)(=O)Cc3ccccc3)c2=O)c1 [Example 2] | < 4.52 | – | – | – | – | – | – | –
CC(C)Nc1cnc(-c2cccnc2)n(CC(=O)NCc2ccc(C(=N)N)cc2)c1=O [Example 7] | 4.95 | 6.15 | 33 | 7.40 | – | – | – | –
N=C(N)c1ccc(CNC(=O)Cn2c(-c3ccccc3)ncc(NS(=O)(=O)Cc3ccccc3)c2=O)cc1 [Example 1] | 4.65 | 4.81 | – | 6.30 | – | – | – | –
CC(C)Nc1cnc(-c2cccc(N)c2)n(CC(=O)NCc2ccc(C(=N)N)cc2)c1=O [Example 6] | – | 7.30 | 33 | > 7.40 | – | – | – | 43
N=C(N)c1ccc(CNC(=O)Cn2c(-c3ccccc3)ncc(NCCc3ccccc3)c2=O)cc1 [Example 3] | – | 6.00 | – | 6.22 | – | – | – | –
N=C(N)c1ccc(CNC(=O)Cn2c(-c3cccc(N)c3)ncc(NC3CCC3)c2=O)cc1 [Example 8] | – | 7.10 | 15 | 7.40 | – | – | – | 42

The next lines start with results.

pIC50 (human thrombin) | pIC50 [1] | inhibition at 30 µM (human factor Xa; [3]) [%] | pIC50 [2] | inhibition at 100 µM (human thrombin) [%] | pIC50 (human factor Xa; cells without % sign, 60 min at room temperature, read-out: IC50 or % Inhibition Factor Xa (30 μM): IC50) | inhibition at 100 µM (human factor Xa; @100 μM, read-out: IC50 or % Inhibition Factor Xa (30 μM): % inhibition) [%] | Structure (SMILES) | inhibition at 30 µM (human thrombin) [%]
– | 7.10 | – | 7.52 | 41 | 4.07 | – | COC(=O)c1cc(N)cc(-c2ncc(NC(C)C)c(=O)n2CC(=O)NCc2ccc(C(=N)N)cc2)c1 [Example 20] | –
– | 7.15 | – | 7.30 | 26 | – | 15 | CC(C)Nc1cnc(-c2cc(N)cc(C(=O)O)c2)n(CC(=O)NCc2ccc(C(=N)N)cc2)c1=O [Example 21] | –
